Measurements as given in ChEMBL document CHEMBL1201862, “PubChem BioAssay data set” (2004).
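Interpolation was linear, between the two tested concentrations surrounding the appropriate level; five concentrations were tested over 48 hours in 96-well plates. Abbreviation: GI50, concentration required for 50% inhibition of growth.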 The source made the active and inactive calls. Rule as the data show it: active = GI50 up to about 1.1 µM and inactive = higher.

What was measured:
Test in all cases: NCI tumour cell line growth inhibition, 48 h
OVCAR-3 = system: OVCAR-3
RPMI-8226 = system: RPMI-8226
HCC 2998 = system: HCC 2998
786-0 = system: 786-0
ACHN = system: ACHN
HOP-92 = system: HOP-92
EKVX = system: EKVX
MDA-MB-231 = system: MDA-MB-231
SNB-75 = system: SNB-75
BT-549 = system: BT-549
SK-OV-3 = system: SK-OV-3
RXF 393 = system: RXF 393
NCI-H23 = system: NCI-H23
SF-539 = system: SF-539
HL-60 = system: HL-60
SK-MEL-2 = system: SK-MEL-2
HCT-116 = system: HCT-116
SK-MEL-5 = system: SK-MEL-5
M14 = system: M14
HOP-62 = system: HOP-62
UACC-62 = system: UACC-62
MCF7 = system: MCF7
TK-10 = system: TK-10
A498 = system: A498
OVCAR-5 = system: OVCAR-5
SR = system: SR
LOX IMVI = system: LOX IMVI
DU-145 = system: DU-145
KM12 = system: KM12
SF-268 = system: SF-268
COLO 205 = system: COLO 205
Hs-578T = system: Hs-578T
NCI/ADR-RES = system: NCI/ADR-RES
OVCAR-4 = system: OVCAR-4
U-251 = system: U-251
NCI-H460 = system: NCI-H460
PC-3 = system: PC-3
SW-620 = system: SW-620
SF-295 = system: SF-295
MDA-MB-435 = system: MDA-MB-435
A549 = system: A549
SNB-19 = system: SNB-19
T47D = system: T47D
CAKI-1 = system: CAKI-1
MOLT-4 = system: MOLT-4
Malme-3M = system: Malme-3M
UO-31 = system: UO-31
HCT-15 = system: HCT-15
UACC-257 = system: UACC-257
NCI-H226 = system: NCI-H226
IGROV-1 = system: IGROV-1
HT-29 = system: HT-29
K562 = system: K562
SK-MEL-28 = system: SK-MEL-28
SN12C = system: SN12C
CCRF-CEM = system: CCRF-CEM
NCI-H522 = system: NCI-H522
OVCAR-8 = system: OVCAR-8

Structure (SMILES): COc1ccc(-c2cc(-c3ccc(Nc4ccnc5cc(C(F)(F)F)ccc45)cc3)nc(N)c2C#N)c2ccccc12
- GI50 (OVCAR-3): > 100 µM (inactive)
- GI50 (RPMI-8226): > 100 µM (inactive)
- GI50 (HCC 2998): > 100 µM (inactive)
- GI50 (786-0): > 100 µM (inactive)
- GI50 (ACHN): > 100 µM (inactive)
- GI50 (HOP-92): > 100 µM (inactive)
- GI50 (EKVX): > 100 µM (inactive)
- GI50 (MDA-MB-231): > 100 µM (inactive)
- GI50 (SNB-75): > 100 µM (inactive)
- GI50 (BT-549): 36.6 µM (inactive)
- GI50 (SK-OV-3): > 100 µM (inactive)
- GI50 (RXF 393): > 100 µM (inactive)
- GI50 (NCI-H23): > 100 µM (inactive)
- GI50 (SF-539): > 100 µM (inactive)
- GI50 (HL-60): 70.3 µM (inactive)
- GI50 (SK-MEL-2): > 100 µM (inactive)
- GI50 (HCT-116): 97.9 µM (inactive)
- GI50 (SK-MEL-5): > 100 µM (inactive)
- GI50 (M14): > 100 µM (inactive)
- GI50 (HOP-62): > 100 µM (inactive)
- GI50 (UACC-62): > 100 µM (inactive)
- GI50 (MCF7): 97.9 µM (inactive)
- GI50 (TK-10): > 100 µM (inactive)
- GI50 (A498): > 100 µM (inactive)
- GI50 (OVCAR-5): > 100 µM (inactive)
- GI50 (SR): 32.5 µM (inactive)
- GI50 (LOX IMVI): 29.4 µM (inactive)
- GI50 (DU-145): > 100 µM (inactive)
- GI50 (KM12): 68.5 µM (inactive)
- GI50 (SF-268): > 100 µM (inactive)
- GI50 (COLO 205): > 100 µM (inactive)
- GI50 (Hs-578T): 65.2 µM (inactive)
- GI50 (NCI/ADR-RES): > 100 µM (inactive)
- GI50 (OVCAR-4): > 100 µM (inactive)
- GI50 (U-251): > 100 µM (inactive)
- GI50 (NCI-H460): > 100 µM (inactive)
- GI50 (PC-3): > 100 µM (inactive)
- GI50 (SW-620): > 100 µM (inactive)
- GI50 (SF-295): > 100 µM (inactive)
- GI50 (MDA-MB-435): > 100 µM (inactive)
- GI50 (A549): > 100 µM (inactive)
- GI50 (SNB-19): > 100 µM (inactive)
- GI50 (T47D): > 100 µM (inactive)
- GI50 (CAKI-1): > 100 µM (inactive)
- GI50 (MOLT-4): 53.3 µM (inactive)
- GI50 (Malme-3M): > 100 µM (inactive)
- GI50 (UO-31): > 100 µM (inactive)
- GI50 (HCT-15): > 100 µM

Structure (SMILES): CC(C)C[P+](c1ccccc1)(c1ccccc1)c1ccccc1
- GI50 (OVCAR-3): 2.31 µM (inactive)
- GI50 (RPMI-8226): < 0.01 µM (active)
- GI50 (HCC 2998): 8.57 µM (inactive)
- GI50 (UACC-257): 0.342 µM (active)
- GI50 (NCI-H226): 8.79 µM (inactive)
- GI50 (786-0): 41.5 µM (inactive)
- GI50 (ACHN): 20.2 µM (inactive)
- GI50 (IGROV-1): 13.3 µM (inactive)
- GI50 (HOP-92): 3.32 µM (inactive)
- GI50 (EKVX): 3.1 µM (inactive)
- GI50 (MDA-MB-231): 31.8 µM (inactive)
- GI50 (SNB-75): 13.1 µM (inactive)
- GI50 (BT-549): 4.75 µM (inactive)
- GI50 (SK-OV-3): 19.8 µM (inactive)
- GI50 (HT-29): 3.64 µM (inactive)
- GI50 (K562): 2.28 µM (inactive)
- GI50 (NCI-H23): 7.4 µM (inactive)
- GI50 (SF-539): 14.8 µM (inactive)
- GI50 (HL-60): 2.29 µM (inactive)
- GI50 (SK-MEL-2): 4.36 µM (inactive)
- GI50 (HCT-116): 4.3 µM (inactive)
- GI50 (SK-MEL-5): 2.86 µM (inactive)
- GI50 (M14): 8.41 µM (inactive)
- GI50 (HOP-62): 13.7 µM (inactive)
- GI50 (UACC-62): 3.85 µM (inactive)
- GI50 (MCF7): 3.31 µM (inactive)
- GI50 (TK-10): 7.08 µM (inactive)
- GI50 (A498): 32.1 µM (inactive)
- GI50 (OVCAR-5): 73.6 µM (inactive)
- GI50 (LOX IMVI): 11.3 µM (inactive)
- GI50 (DU-145): 6.95 µM (inactive)
- GI50 (KM12): 1.79 µM (inactive)
- GI50 (SF-268): 10.3 µM (inactive)
- GI50 (COLO 205): 3.08 µM (inactive)
- GI50 (Hs-578T): 11.2 µM (inactive)
- GI50 (SK-MEL-28): 22.6 µM (inactive)
- GI50 (NCI/ADR-RES): > 100 µM (inactive)
- GI50 (SN12C): 12.3 µM (inactive)
- GI50 (OVCAR-4): 12.1 µM (inactive)
- GI50 (U-251): 3.12 µM (inactive)
- GI50 (NCI-H460): 5.89 µM (inactive)
- GI50 (SW-620): 5.87 µM (inactive)
- GI50 (SF-295): 13.2 µM (inactive)
- GI50 (MDA-MB-435): 2.87 µM (inactive)
- GI50 (A549): 6.22 µM (inactive)
- GI50 (CCRF-CEM): 0.419 µM (active)
- GI50 (SNB-19): 9.35 µM (inactive)
- GI50 (T47D): 11.8 µM (inactive)
- GI50 (NCI-H522): 3.97 µM (inactive)
- GI50 (CAKI-1): 10.5 µM (inactive)
- GI50 (MOLT-4): 3.57 µM (inactive)
- GI50 (Malme-3M): 5.7 µM (inactive)
- GI50 (UO-31): 45.5 µM (inactive)
- GI50 (HCT-15): 64.3 µM

Structure (SMILES): COC(=O)CCCC(=O)C1=NN(c2ccc(Cl)cc2)Cc2ccccc2N1
- GI50 (OVCAR-3): 93.8 µM (inactive)
- GI50 (RPMI-8226): > 100 µM (inactive)
- GI50 (HCC 2998): > 100 µM (inactive)
- GI50 (UACC-257): > 100 µM (inactive)
- GI50 (NCI-H226): 51.4 µM (inactive)
- GI50 (786-0): 17.6 µM (inactive)
- GI50 (ACHN): > 100 µM (inactive)
- GI50 (IGROV-1): > 100 µM (inactive)
- GI50 (HOP-92): > 100 µM (inactive)
- GI50 (EKVX): 70.6 µM (inactive)
- GI50 (MDA-MB-231): > 100 µM (inactive)
- GI50 (SNB-75): 88.3 µM (inactive)
- GI50 (BT-549): > 100 µM (inactive)
- GI50 (SK-OV-3): > 100 µM (inactive)
- GI50 (RXF 393): 86.1 µM (inactive)
- GI50 (HT-29): 98.6 µM (inactive)
- GI50 (K562): > 100 µM (inactive)
- GI50 (NCI-H23): > 100 µM (inactive)
- GI50 (SF-539): > 100 µM (inactive)
- GI50 (SK-MEL-2): > 100 µM (inactive)
- GI50 (HCT-116): > 100 µM (inactive)
- GI50 (SK-MEL-5): > 100 µM (inactive)
- GI50 (M14): > 100 µM (inactive)
- GI50 (HOP-62): 60.5 µM (inactive)
- GI50 (UACC-62): 27.3 µM (inactive)
- GI50 (MCF7): 75.9 µM (inactive)
- GI50 (TK-10): > 100 µM (inactive)
- GI50 (A498): 36.1 µM (inactive)
- GI50 (OVCAR-5): > 100 µM (inactive)
- GI50 (LOX IMVI): > 100 µM (inactive)
- GI50 (DU-145): > 100 µM (inactive)
- GI50 (KM12): > 100 µM (inactive)
- GI50 (SF-268): > 100 µM (inactive)
- GI50 (COLO 205): 54 µM (inactive)
- GI50 (Hs-578T): 68.4 µM (inactive)
- GI50 (SK-MEL-28): > 100 µM (inactive)
- GI50 (NCI/ADR-RES): 79.4 µM (inactive)
- GI50 (SN12C): > 100 µM (inactive)
- GI50 (OVCAR-4): 20.7 µM (inactive)
- GI50 (U-251): > 100 µM (inactive)
- GI50 (PC-3): 91 µM (inactive)
- GI50 (OVCAR-8): 56.4 µM (inactive)
- GI50 (SW-620): > 100 µM (inactive)
- GI50 (SF-295): > 100 µM (inactive)
- GI50 (MDA-MB-435): > 100 µM (inactive)
- GI50 (A549): 96.4 µM (inactive)
- GI50 (CCRF-CEM): > 100 µM (inactive)
- GI50 (SNB-19): > 100 µM (inactive)
- GI50 (T47D): 5.56 µM (inactive)
- GI50 (NCI-H522): 54.7 µM (inactive)
- GI50 (CAKI-1): > 100 µM (inactive)
- GI50 (MOLT-4): > 100 µM (inactive)
- GI50 (UO-31): > 100 µM (inactive)
- GI50 (HCT-15): 95.1 µM
